Measurements published in the supplement of paper PMC11208160.

assay: recombinant barcode read abundance after kanamycin selection (control-corrected) (log10(CPM+1)); higher = more efficient recombination; sequences stand for … in AGTGCAGAGAAAATCGGCCAGTTTTCTCTGCCTGCAGTCCGCATGCCGT…ATTTATGCAGCGGACTGCCTTTCTCCCAAAGTGATAAACCGGACAGTATCATGGACCGGTTTTCCCGGTAATCCGTATTTGCAAGGTTGGTTTCACT; site = the 11-nt target
Description: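 Same pooled E. coli target screen (IS621 bridge recombinase, kanamycin selection, control-corrected CPM, mean of 2 biological replicates). Here the two core-binding nucleotides of the LTG and RTG of the bridge RNA target-binding loop are mutated. Target and donor CT cores are held constant, and the other 9 guide positions match the target. The target is read from the library oligo sequence. Molecule = full bridge RNA written as DNA: nt 1-80 from the library oligo, rest WT scaffold.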

Row | Sequence | recombinant barcode read abundance (log10)
1 | AAACACAAATGGGTTCTAACCTGTTGCCTAG [AAACACACTAG_LTGcore_AA_RTGcore_CT] (site AAACACACTAG) (LTG core: AA, RTG core: CT) | 0.0621
2 | AAACACAATTGGGTTCTAACCTGTTGCCTAG [AAACACACTAG_LTGcore_AT_RTGcore_CT] (site AAACACACTAG) (LTG core: AT, RTG core: CT) | 0.375
3 | AAACACACCTGGGTTCTAACCTGTTGCCTAG [AAACACACTAG_LTGcore_CC_RTGcore_CT] (site AAACACACTAG) (LTG core: CC, RTG core: CT) | 0.633
4 | AAACACACGTGGGTTCTAACCTGTTGCCTCG [AAACACACTAG_LTGcore_CG_RTGcore_CG] (site AAACACACTAG) (LTG core: CG, RTG core: CG) | 0.296
5 | AAACACACTTGGGTTCTAACCTGTTGCCTAT [AAACACACTAG_LTGcore_CT_RTGcore_AT] (site AAACACACTAG) (LTG core: CT, RTG core: AT) | 0.39
6 | AAACACATATGGGTTCTAACCTGTTGCCTAG [AAACACACTAG_LTGcore_TA_RTGcore_CT] (site AAACACACTAG) (LTG core: TA, RTG core: CT) | 0.104
7 | AAACACATATGGGTTCTAACCTGTTGCCTTA [AAACACACTAG_LTGcore_TA_RTGcore_TA] (site AAACACACTAG) (LTG core: TA, RTG core: TA) | 0.146
8 | AAACAGTACTGGGTTCTAACCTGTTGCCTGT [AAACAGTCTAG_LTGcore_AC_RTGcore_AC] (site AAACAGTCTAG) (LTG core: AC, RTG core: AC) | 0.114
9 | AAACAGTAGTGGGTTCTAACCTGTTGCCTAG [AAACAGTCTAG_LTGcore_AG_RTGcore_CT] (site AAACAGTCTAG) (LTG core: AG, RTG core: CT) | 0.0711
10 | AAACAGTCTTGGGTTCTAACCTGTTGCCTCA [AAACAGTCTAG_LTGcore_CT_RTGcore_TG] (site AAACAGTCTAG) (LTG core: CT, RTG core: TG) | 0.601
11 | AAACAGTCTTGGGTTCTAACCTGTTGCCTGC [AAACAGTCTAG_LTGcore_CT_RTGcore_GC] (site AAACAGTCTAG) (LTG core: CT, RTG core: GC) | 1.44

assay: recombinant barcode read abundance after kanamycin selection (control-corrected) (log10(CPM+1)); higher = more efficient recombination; sequences stand for … in AGTGCAGAGAAAATCGGCCAGTTTTCTCTGCCTGCAGTCCGCATGCCGT…AGATTTATGCAGCGGACTGCCTTTCTCCCAAAGTGATAAACCGGACAGTATCATGGACCGGTTTTCCCGGTAATCCGTATTTGCAAGGTTGGTTTCACT; site = the 11-nt target
Method in brief: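 Reported as log10(CPM+1), each value stands for recombination efficiency. That efficiency is the averaged, control-corrected counts per million of barcodes found at recombinant junctions. Cells from a pooled E. coli library pairing targets with IS621 bridge RNA target-binding loops were plated twice on chloramphenicol/ampicillin LB agar (control) and twice on chloramphenicol/ampicillin/kanamycin with 0.1 mM IPTG.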

Row | Sequence | recombinant barcode read abundance (log10)
12 | TTCGGGCCTTGGGTTCTAACCTGTTGCCT (site GTCGGGCCTAG) | 0.0582
13 | TTCGGGCCTTGGGTTCTAACCTGTTGCCT (site TTCGGGCCTAG) | 0.169
14 | TTCTAGTCTTGGGTTCTAACCTGTTGCTA (site ACAAGACCTAT) | 0.0562
15 | TTCTAGTCTTGGGTTCTAACCTGTTGCTA (site TTCTAGTCTTA) | 0.416
16 | TTCTGCGCTTGGGTTCTAACCTGTTGCCT (site TTCTGAGCTAG) | 0.0215
17 | TTCTGCGCTTGGGTTCTAACCTGTTGCCT (site TTCTGCGCTAG) | 1.2
18 | TTCTGCGCTTGGGTTCTAACCTGTTGCCT (site TTCTGGGCTAG) | 0.0626
19 | TTCTGCGCTTGGGTTCTAACCTGTTGCCT (site TTCTGTGCTAG) | 0.191
20 | TTCTGGGCTTGGGTTCTAACCTGTTGCCT (site TTCTGAGCTAG) | 0.172
21 | TTCTGGGCTTGGGTTCTAACCTGTTGCCT (site TTCTGCGCTAG) | 0.0493
22 | TTCTGGGCTTGGGTTCTAACCTGTTGCCT (site TTCTGGGCTAG) | 0
23 | TTCTGGGCTTGGGTTCTAACCTGTTGCCT (site TTCTGTGCTAG) | 0.137
24 | TTGAAACCTTGGGTTCTAACCTGTTGCCT (site GACGCCTCTGC) | 0.0146
25 | TTGAAACCTTGGGTTCTAACCTGTTGCCT (site TTGAAACCTAG) | 1.04
26 | TTGAGGCCTTGGGTTCTAACCTGTTGCCT (site ATGAGGCCTAG) | 0.059
27 | TTGAGGCCTTGGGTTCTAACCTGTTGCCT (site CTGAGGCCTAG) | 0.0268
28 | TTGAGGCCTTGGGTTCTAACCTGTTGCCT (site GTGAGGCCTAG) | 0.0327
29 | TTGAGGCCTTGGGTTCTAACCTGTTGCCT (site TTGAGGCCTAG) | 0.0305
30 | TTGAGTCCTTGGGTTCTAACCTGTTGCCT (site TTGAGTCCTAG) | 1.04
31 | TTGAGTCCTTGGGTTCTAACCTGTTGCCT (site TTGGGTCCTAC) | 0.319

Row | Sequence | recombinant barcode read abundance (log10)
32 | TTGATAGCTTGGGTTCTAACCTGTTGCTA (site ACCGCGTCTAT) | 0.174
33 | TTGATAGCTTGGGTTCTAACCTGTTGCTA (site TTGATAGCTTA) | 0.203
34 | TTGCAAACTTGGGTTCTAACCTGTTGCCT (site TTGCAAACTAG) | 0.501
35 | TTGCAAACTTGGGTTCTAACCTGTTGCCT (site TTGCCAACTAG) | 0.0256
36 | TTGCAAACTTGGGTTCTAACCTGTTGCCT (site TTGCGAACTAG) | 0.0337
37 | TTGCAAACTTGGGTTCTAACCTGTTGCCT (site TTGCTAACTAG) | 0.0349
38 | TTGCGAACTTGGGTTCTAACCTGTTGCAG (site GACGCGGCTAG) | 0.0589
39 | TTGCGAACTTGGGTTCTAACCTGTTGCAG (site TTGCGAACTCT) | 0.455
40 | TTGCGAACTTGGGTTCTAACCTGTTGCCT (site TTGCAAACTAG) | 0.0904
41 | TTGCGAACTTGGGTTCTAACCTGTTGCCT (site TTGCCAACTAG) | 0.269
42 | TTGCGAACTTGGGTTCTAACCTGTTGCCT (site TTGCGAACTAG) | 0.868
43 | TTGCGAACTTGGGTTCTAACCTGTTGCCT (site TTGCTAACTAG) | 0.0519
44 | TTGCTAACTTGGGTTCTAACCTGTTGCCT (site TTGCAAACTAG) | 0.0817
45 | TTGCTAACTTGGGTTCTAACCTGTTGCCT (site TTGCCAACTAG) | 0.0109
46 | TTGCTAACTTGGGTTCTAACCTGTTGCCT (site TTGCGAACTAG) | 0.0431
47 | TTGCTAACTTGGGTTCTAACCTGTTGCCT (site TTGCTAACTAG) | 0.802
48 | TTGGATACTTGGGTTCTAACCTGTTGCCA (site CATCTACCTCC) | 0.103
49 | TTGGATACTTGGGTTCTAACCTGTTGCCA (site TTGGATACTTG) | 1.04
50 | TTGGCCACTTGGGTTCTAACCTGTTGCCT (site TTGGACACTAG) | 0.0972
51 | TTGGCCACTTGGGTTCTAACCTGTTGCCT (site TTGGCCACTAG) | 1.08

Row | Sequence | recombinant barcode read abundance (log10)
52 | TTGGCCACTTGGGTTCTAACCTGTTGCCT (site TTGGGCACTAG) | 0.121
53 | TTGGCCACTTGGGTTCTAACCTGTTGCCT (site TTGGTCACTAG) | 0.0232
54 | TTGGCCGCTTGGGTTCTAACCTGTTGCCT (site TTGGACGCTAG) | 0.109
55 | TTGGCCGCTTGGGTTCTAACCTGTTGCCT (site TTGGCCGCTAG) | 1.65
56 | TTGGCCGCTTGGGTTCTAACCTGTTGCCT (site TTGGGCGCTAG) | 0.374
57 | TTGGCCGCTTGGGTTCTAACCTGTTGCCT (site TTGGTCGCTAG) | 0.148
58 | TTGGGGTCTTGGGTTCTAACCTGTTGCCT (site GTAGGGTCTAG) | 0.155
59 | TTGGGGTCTTGGGTTCTAACCTGTTGCCT (site TTGGGGTCTAG) | 1.65
60 | TTGGGTCCTTGGGTTCTAACCTGTTGCGT (site TTGAGTCCTAG) | 0.15
61 | TTGGGTCCTTGGGTTCTAACCTGTTGCGT (site TTGGGTCCTAC) | 3.32
62 | TTGGTCACTTGGGTTCTAACCTGTTGCCA (site GGAAGGCCTAA) | 0.0841
63 | TTGGTCACTTGGGTTCTAACCTGTTGCCA (site TTGGTCACTTG) | 0.525
64 | TTGGTCCCTTGGGTTCTAACCTGTTGCCT (site TTGGTACCTAG) | 0.565
65 | TTGGTCCCTTGGGTTCTAACCTGTTGCCT (site TTGGTCCCTAG) | 2.93
66 | TTGGTCCCTTGGGTTCTAACCTGTTGCCT (site TTGGTGCCTAG) | 0.0514
67 | TTGGTCCCTTGGGTTCTAACCTGTTGCCT (site TTGGTTCCTAG) | 0.131
68 | TTGTATACTTGGGTTCTAACCTGTTGCCT (site GTGTCTACTAG) | 0.129
69 | TTGTATACTTGGGTTCTAACCTGTTGCCT (site TTGTATACTAG) | 0.612
70 | TTGTGAGCTTGGGTTCTAACCTGTTGCGG (site TTGTAAGCTCG) | 0.037
71 | TTGTGAGCTTGGGTTCTAACCTGTTGCGG (site TTGTGAGCTCC) | 1.15
